These results are taken from patent publication US8785460B2, “Tricyclic compounds and use thereof” (Takeda Pharmaceutical Company Limited, priority 2008, dated 2014).

Molecules are shown by their SMILES. Where a name gives a salt, the structure may show the parent alone.

The test deals with T1, human CRF1 receptor (Homo sapiens, UniProt P34998).
T1 construct: expressed in transfected cells; host or cells: CHO cells (membrane fraction)
T1 sequence (P34998 24-415): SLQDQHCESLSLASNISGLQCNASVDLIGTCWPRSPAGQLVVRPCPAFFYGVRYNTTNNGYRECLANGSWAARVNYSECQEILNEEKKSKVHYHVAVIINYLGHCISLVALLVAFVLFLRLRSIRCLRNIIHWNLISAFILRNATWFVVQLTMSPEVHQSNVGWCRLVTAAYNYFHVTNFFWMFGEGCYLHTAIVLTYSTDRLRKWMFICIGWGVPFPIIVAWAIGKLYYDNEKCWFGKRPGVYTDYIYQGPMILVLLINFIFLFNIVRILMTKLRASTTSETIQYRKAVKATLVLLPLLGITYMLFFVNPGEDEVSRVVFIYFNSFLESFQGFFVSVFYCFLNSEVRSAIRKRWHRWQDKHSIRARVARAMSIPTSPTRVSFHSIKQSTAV
The test is described as follows: Measurement of CRF Binding Inhibitory Rate (receptor binding experiment with 125I-CRF). The settings on record: human CRF1 receptor expressing CHO cellular membrane fraction, 50 pM 125I-CRF, room temperature 1.5 hr, 0.05 nM to 10 μM of compound; read-out: IC50 values (CRF binding inhibition). As for the experimental part:
Measurement of CRF Binding Inhibitory Rate
A receptor binding experiment was carried out using a human CRF1 receptor expressing CHO cellular membrane fraction and ovine CRF, [^125I]-tyr^0(^125I-CRF). 1000 nM of a test compound was incubated with 1 μg of human CREF receptor expressing CHO cellular membrane fraction and 50 pM of ^125I-CRF in a binding assay buffer (50 mM Tris-HCl, 5 mM EDTA, 10 mM MgCl2, 0.05% CHAPS, 0.1% BSA, 0.5 mM PMSF, 0.1 μg/mL pepstatin, 20 μg/mL leupeptin, pH 7.5). In addition, for measuring nonspecific binding (NSB), 0.1 μM unlabelled human Urocortin was incubated with 5 μg of human CRE receptor expressing CHO cellular membrane fraction and 50 pM of ^125I-CRF in a binding assay buffer. After a binding reaction was carried out at room temperature for 1.5 hr, the membrane was entrapped on a glass filter (UniFilter plate GF-C/Perkin Elmer) by suction filtration using a cell harvester (Perkin Elmer), and washed with ice-cooled 50 mM Tris-HCl (pH 7.5). After drying the glass filter, a liquid scintillation cocktail (Microscinti 0, Perkin Elmer) was added, and the radioactivity of ^125I-CRF remaining on a glass filter was measured using Topcount (Perkin Elmer).
(TB−SB)/(TB−NSB)×100 (SB: radioactivity when a compound is added, TB: maximum binding radioactivity, NSB: nonspecific binding radioactivity) were calculated to obtain binding inhibitory rates under the range of the presence from 0.05 nM to 10 μM of each compound. The IC50 values were calculated by using GraphPad Prism software.

The IC50 is the concentration that gives 50% inhibition. Take `CCC(CC)c1ccc(Cl)c2nc3n(c12)CCCCN3c1ccc(C)cc1C=O` [Example 34, 2-[10-Chloro-7-(1-ethylpropyl)-2,3,4,5-tetrahydro-1H-[1,3]diazepino[1,2-a]benzimidazol-1-yl]-5-methylbenzaldehyde]: the half-inhibitory concentration (IC50) is less than 1 µM.

As for `CCC(OC1CC1)c1ccc(Cl)c2nc3n(c12)CCCN3c1ccc(OC)nc1C` (stereo not drawn) [Example 271, 9-Chloro-6-[1-(cyclopropyloxy)propyl]-1-(6-methoxy-2-methylpyridin-3-yl)-1,2,3,4-tetrahydropyrimido[1,2-a]benzimidazole], the IC50 was less than 1 µM.

As to `OC(c1ccc(Cl)c2nc3n(c12)CCCOC3c1ccc(Cl)cc1Cl)(C1CC1)C1CC1` (stereo not drawn) [Example 500, [10-Chloro-1-(2,4-dichlorophenyl)-4,5-dihydro-1H,3H-[1,4]oxazepino[4,3-a]benzimidazol-7-yl](dicyclopropyl)methanol], the IC50 was less than 1 µM.

In the case of `CCN(CC)c1ccc(Cl)c2nc3n(c12)CCCCN3c1ccc(Cl)cc1Cl` [Example 98, 10-Chloro-1-(2,4-dichlorophenyl)-N,N-diethyl-2,3,4,5-tetrahydro-1H-[1,3]diazepino[1,2-a]benzimidazol-7-amine], the IC50 was less than 1 µM.

As for `CCC(CC)c1ccc(Cl)c2nc3n(c12)CCN3c1ccc(Cl)cc1C#N` [Example 18, 5-Chloro-2-[8-chloro-5-(1-ethylpropyl)-2,3-dihydro-1H-imidazo[1,2-a]benzimidazol-1-yl]benzonitrile], the IC50 was less than 1 µM.

On to `CCC(CC)c1ccc(Cl)c2nc3n(c12)CCCCN3c1ccc(OC(F)(F)F)cc1C=O` [Example 41, 2-[10-Chloro-7-(1-ethylpropyl)-2,3,4,5-tetrahydro-1H-[1,3]diazepino[1,2-a]benzimidazol-1-yl]-5-(trifluoromethoxy)benzaldehyde], for which the IC50 was less than 1 µM.

On to `C=COC(CC)c1ccc(Cl)c2nc3n(c12)CCCN3c1ccc(Cl)cc1Cl` (stereo not drawn) [Example 305, 9-Chloro-1-(2,4-dichlorophenyl)-6-[1-(ethenyloxy)propyl]-1,2,3,4-tetrahydropyrimido[1,2-a]benzimidazole], for which the half-inhibitory concentration (IC50) was less than 1 µM.

For the compound `CCC(CC)c1ccc(Cl)c2nc3n(c12)CC(=O)N3c1c(C)cc(Cl)cc1OC` [Example 2, 8-Chloro-1-(4-chloro-2-methoxy-6-methylphenyl)-5-(1-ethylpropyl)-1H-imidazo[1,2-a]benzimidazol-2(3H)-one], the IC50 is less than 1 µM.

Regarding `CCC(C(=O)C(F)(F)F)c1ccc(Cl)c2nc3n(c12)CCCN3c1ccc(Cl)cc1Cl` (stereo not drawn) [Example 318], the IC50 was less than 1 µM.

As for `CCC(OC(C)=O)c1ccc(Cl)c2nc3n(c12)CCCN3c1ccc(S(C)(=O)=O)cc1Cl` (stereo not drawn) [Example 254, 1-{9-Chloro-1-[2-chloro-4-(methylsulfonyl)phenyl]-1,2,3,4-tetrahydropyrimido[1,2-a]benzimidazol-6-yl}propyl acetate], the 50% inhibitory concentration (IC50) is less than 1 µM.

Consider `CCC(O)c1ccc(Cl)c2nc3n(c12)CCCN3c1c(C)cc(Cl)cc1Cl` (stereo not drawn) [Example 379, 1-[9-Chloro-1-(2,4-dichloro-6-methylphenyl)-1,2,3,4-tetrahydropyrimido[1,2-a]benzimidazol-6-yl]propan-1-ol], for which the IC50 was less than 1 µM.

As to `CCC(c1ccc(Cl)c2nc3n(c12)CCCN3c1ccc(Cl)cc1Cl)C(C)O` (stereo not drawn) [Example 404, 3-[9-Chloro-1-(2,4-dichlorophenyl)-1,2,3,4-tetrahydropyrimido[1,2-a]benzimidazol-6-yl]pentan-2-ol], the IC50 was less than 1 µM.

Take `CCC(OC(C)=O)c1ccc(Cl)c2nc3n(c12)CCCN3c1ccccc1Cl` (stereo not drawn) [Example 253, 1-[9-Chloro-1-(2-chlorophenyl)-1,2,3,4-tetrahydropyrimido[1,2-a]benzimidazol-6-yl]propyl acetate]: the IC50 was less than 1 µM.

`CC(=O)NC(c1ccc(Cl)c2nc3n(c12)CCCN3c1c(Cl)cc(Cl)cc1Cl)C(F)(F)F` (stereo not drawn) [Example 415, N-{1-[9-Chloro-1-(2,4,6-trichlorophenyl)-1,2,3,4-tetrahydropyrimido[1,2-a]benzimidazol-6-yl]-2,2,2-trifluoroethyl}acetamide]: the IC50 is less than 1 µM.

For `CCC(OC(C)=O)c1ccc(Cl)c2nc3n(c12)CCCN3c1ccc(OC)nc1C` (single isomer, unassigned; (-)) [Example 266, (−)-1-[9-Chloro-1-(6-methoxy-2-methylpyridin-3-yl)-1,2,3,4-tetrahydropyrimido[1,2-a]benzimidazol-6-yl]propyl acetate], the half-maximal inhibitory concentration (IC50) was less than 1 µM.

Turning to `CCN(CC)c1ccc(Cl)c2nc3n(c12)CCOC3c1ccc(Cl)cc1Cl` (stereo not drawn) [Example 502, 9-Chloro-1-(2,4-dichlorophenyl)-N,N-diethyl-3,4-dihydro-1H-[1,4]oxazino[4,3-a]benzimidazol-6-amine], the half-inhibitory concentration (IC50) was less than 1 µM.

As for `CCN(CC)c1cccc2nc3n(c12)CCCOC3c1ccc(Cl)cc1Cl` (single isomer, unassigned) [Example 485, 1-(2,4-Dichlorophenyl)-N,N-diethyl-4,5-dihydro-1H,3H-[1,4]oxazepino[4,3-a]benzimidazol-7-amine], the IC50 was less than 1 µM.

As for `CCC(CC)c1ccc(Cl)c2nc3n(c12)CCCCN3c1ccc(C)cc1CN(C)C` [Example 35, 1-{2-[10-Chloro-7-(1-ethylpropyl)-2,3,4,5-tetrahydro-1H-[1,3]diazepino[1,2-a]benzimidazol-1-yl]-5-methylphenyl}-N,N-dimethylmethanamine hydrochloride], the 50% inhibitory concentration (IC50) is less than 1 µM.

`CCC(OCCOC)c1cccc2nc3n(c12)CCCN3c1ccc(Cl)cc1Cl` (stereo not drawn) [Example 94, 1-(2,4-Dichlorophenyl)-6-[1-(2-methoxyethoxy)propyl]-1,2,3,4-tetrahydropyrimido[1,2-a]benzimidazole]: the IC50 was less than 1 µM.

For `COc1ccc(N2CCCCn3c2nc2c(Cl)ccc(CO)c23)c(Cl)c1` [Example 331, [10-Chloro-1-(2-chloro-4-methoxyphenyl)-2,3,4,5-tetrahydro-1H-[1,3]diazepino[1,2-a]benzimidazol-7-yl]methanol], the IC50 is less than 1 µM.

With `CCC(CC)c1ccc(Cl)c2nc3n(c12)CCN3c1ncc(C(F)(F)F)cc1Cl` [Example 225, 8-Chloro-1-[3-chloro-5-(trifluoromethyl)pyridin-2-yl]-5-(1-ethylpropyl)-2,3-dihydro-1H-imidazo[1,2-a]benzimidazole], the half-inhibitory concentration (IC50) is less than 1 µM.

`NC(c1ccc(Cl)c2nc3n(c12)CCCN3c1c(Cl)cc(Cl)cc1Cl)C(F)(F)F` (stereo not drawn) [Example 414, 1-[9-Chloro-1-(2,4,6-trichlorophenyl)-1,2,3,4-tetrahydropyrimido[1,2-a]benzimidazol-6-yl]-2,2,2-trifluoroethanamine]: the IC50 was less than 1 µM.

Consider `CCC(NC(C)=O)c1ccc(Cl)c2nc3n(c12)CCCN3c1c(C)cc(Cl)cc1Cl` (stereo not drawn) [Example 377, N-{1-[9-Chloro-1-(2,4-dichloro-6-methylphenyl)-1,2,3,4-tetrahydropyrimido[1,2-a]benzimidazol-6-yl]propyl}acetamide], for which the IC50 was less than 1 µM.

Take `CC(C)(C#N)c1ccc(Cl)c2nc3n(c12)CCCN3c1ccc(Cl)cc1Cl` [Example 144, 2-[9-Chloro-1-(2,4-dichlorophenyl)-1,2,3,4-tetrahydropyrimido[1,2-a]benzimidazol-6-yl]-2-methylpropanenitrile]: the IC50 was less than 1 µM.

As for `CCC(CC)c1ccc(Cl)c2nc3n(c12)CCCCN3c1ccc(OC(F)(F)F)cc1` [Example 40, 10-Chloro-7-(1-ethylpropyl)-1-[4-(trifluoromethoxy)phenyl]-2,3,4,5-tetrahydro-1H-[1,3]diazepino[1,2-a]benzimidazole], the concentration for half-maximal inhibition (IC50) is less than 1 µM.

Take `Cc1nc(OC(C)C)ccc1N1CCCn2c1nc1c(Cl)ccc(C(OC(F)F)C(F)(F)F)c12` (stereo not drawn) [Example 288, 9-Chloro-6-[1-(difluoromethoxy)-2,2,2-trifluoroethyl]-1-[2-methyl-6-(1-methylethoxy)pyridin-3-yl]-1,2,3,4-tetrahydropyrimido[1,2-a]benzimidazole]: the IC50 was less than 1 µM.

`COc1ccc(N2CCCn3c2nc2c(Cl)ccc(C(OC)C(F)(F)F)c23)c(Cl)c1` (stereo not drawn) [Example 471, 9-Chloro-1-(2-chloro-4-methoxyphenyl)-6-(2,2,2-trifluoro-1-methoxyethyl)-1,2,3,4-tetrahydropyrimido[1,2-a]benzimidazole]: the IC50 is less than 1 µM.
